Results taken from patent US5183821A, “Method for treating leukemias using N-(2-dimethylaminoethyl)-3-amino-1,8-naphthalimide for treating leukemias and solid tumors” (priority 1991, dated 1993).
“And” between values parts separate entries of the source, which are not always exact repeats. Identical values can stand only once. “Also recorded” adds a separate entry of the source.

Experiments:
CX-1 colon xenograft = assay: NCI screen, CX-1 colon xenograft, renal capsule (summary); format: in vivo, human tumor xenograft in athymic mice; settings: for Antitumor activity in words: CX-1 colon xenograft
Source text: (§1) The activity of the compound has been evaluated by experiments carried out under the auspices of the Division of Cancer Treatment, National Cancer Institute, employing techniques considered to be reliable indicators of chemotherapeutic utility in the treatment of forms of cancer in human patients. The details of the methodology employed in the reported experiments may be determined with reference to established NCI screening methods.
(§2) In the experiments conducted by the NCI, evaluation of activity is made on the basis of appropriate parameters, such as median survival time (MST) or change in average tumor diameter (CATD)in ocular micrometer units (OMU).

beagle dogs = assay: Single dose dog toxicity study; format: in vivo; settings: for Mortality / lethality: single; for toxicity summary, dogs: single dose i.v.
Procedure: Preclinical toxicity studies of BIDA were completed in CD2F1 Mice, Fischer 344 rats and beagle dogs (4). The animals were injected IV with a single bolus or daily for five days.
A preclinical toxicology study of benzisoquinolinedione (NSC-308847) was done at Springborn Institute for Bioresearch, Inc. using CD2 F1 mice, Fischer 344 rats and beagle dogs. Animals were injected intravenously on a single dose (X1) or five daily dose (X5) regimen. Bulk drug was titrated with 0.5N HCl to form a salt solution of benzisoquinolinedione at a pH of 5.0-6.5. Sterile 0.9% saline was used for diluting the dosing solutions and was used for the vehicle control animals.
The following summarizes the major organ toxicities resulting from IV administration of benzisoquinolinedione to dogs.

L-1210 Lymphoid leukemia [1] = assay: Experiment 2: L-1210 s.c., 10^5 cells, acid diluted with saline, female; format: in vivo, Mouse CD2 F1 (CDF1)
Source text: (§3) Host: Mouse CD2 F1 (CDF1)
(§4) Tumor: L-1210 Lymphoid leukemia
Inoculum site: Subcutaneous
Vehicle: Acid diluted with saline
(§5) Treatment schedule (relative to tumor inoculation day): daily on days 1-9
(§6) Day of evaluation (relative to tumor inoculation day): 30
(§7) Parameter: Median survival time (MST) in days
(§8) NCI minimal activity criteria: Percent T/C≥125
(§9) Percent T/C: Ratio of test (T) evaluation to control (C) evaluation expressed as a percentage

LX-1 lung xenograft = assay: NCI screen, LX-1 lung xenograft, renal capsule (summary); format: in vivo, human tumor xenograft in athymic mice; settings: for Antitumor activity in words: LX-1 lung xenograft
Source text: as §1, §2

[2] = system: P388 Lymphocytic leukemia; assay: Experiment 11: P388 i.p., 10^6 cells, saline with Tween-80, female; format: in vivo, Mouse CD2 F1 (CDF1)
Source text: as §3
Tumor: P388 Lymphocytic leukemia
(§10) Inoculum Site: Intraperitoneal
(§11) Vehicle: Saline with Tween-80
as §5, §6, §7
(§12) NCI minimal activity criteria: Percent T/C≥120
as §9

[3] = system: P 388 Lymphocytic leukemia; assay: Experiment 10: P388 i.p., 10^6 cells, saline with Tween-80, male; format: in vivo, Mouse CD2F1 (CDF1)
Source text: Tumor: P 388 Lymphocytic leukemia
as §10, §11, §5, §6, §7, §12, §9

Colon 38 [4] = assay: Experiment 14: Colon 38 s.c., saline with Tween-80, female; format: in vivo, Mouse B6 D2 F1 (BDF1)
Source text: Host: Mouse B6 D2 F1 (BDF1)
Inoculum Site: Subcutaneous
as §11
Treatment schedule (relative to tumor inoculation day): Days 2 and 9
Day of evaluation (relative to tumor inoculation day): 20
Parameter: Median tumor weight (MTW) estimated from tumor diameter
NCI minimal activity criteria: Percent T/C≤42
as §9

L-1210 Lymphoid leukemia [5] = assay: Experiment 3: L-1210 i.p., 10^5 cells, saline with Tween-80, male; format: in vivo, Mouse CD2 F1 (CDF1)
Source text: as §3, §4
Inoculum Site: intraperitoneal
as §11
Treatment schedule (relative to tumor inoculation day) daily on days 1-9
as §6
Parameter: Mean survival time (MST) in days.
as §8, §9

Colon 38 [6] = assay: NCI screen, Colon 38, subcutaneous (summary); format: in vivo, Mouse; settings: for Antitumor activity in words: colon 38
Source text: as §1, §2

canine whole blood = assay: Hemolytic potential testing, canine whole blood; settings: 50 mg/ml
Procedure: Therefore, a concentration of 12.5 mg/ml was used in the dog studies.

[7] = system: MX-1 mammary tumor xenograft; assay: NCI screen, MX-1 breast (mammary) xenograft, renal capsule (summary); format: in vivo, human tumor xenograft in athymic mice; settings: for Antitumor activity in words: MX-1 mammary xenograft
Source text: as §1, §2

[8] = change in average tumor diameter, 4 tests, full wrapped cell: Activity not confirmed
[9] = 18.4 mg/kg, three dogs, days 2, 3 and/or 4

## CN(C)CCN1C(=O)c2cccc3cc(N)cc(c23)C1=O [Example 9, 1H-Benz[de]isoquinoline-1,3(2H)-dione, 5-amino-2-[2-(dimethylamino)ethyl]]
CX-1 colon xenograft; listed as BIDA
  Antitumor activity in words: No activity was seen
CX-1 colon xenograft; listed as the compound
  Antitumor activity in words: not active
CX-1 colon xenograft; [8]
  Table II evaluation: Activity not
Beagle dogs; 0.92 mg/kg
  gross or microscopic lesions: No drug-related gross or microscopic lesions were found
Beagle dogs; 0.92 mg/kg (1/10MELD10)
  Mortality / lethality: 0/4
Beagle dogs; 0.92 mg/kg, days 2 and 4
  SGPT: 27-40 I.U./L
Beagle dogs; 0.92 mg/kg, one dog, day 4
  BUN: 26 mg/dL
  Creatinine: 1.29 mg/dL
Beagle dogs; 9.2 mg/kg
  gross or microscopic lesions: No drug-related gross or microscopic lesions were found
Beagle dogs; 9.2 mg/kg (MELD10)
  Mortality / lethality: 0/4
Beagle dogs; 9.2 mg/kg, day 4
  Creatinine: 1.31 mg/dL
Beagle dogs; 9.2 mg/kg, one dog, days 2 and 4
  BUN: 22 to 23 mg/dL
Beagle dogs; 9.2 mg/kg, three dogs, days 2 and/or 4
  SGPT: 32-43 I.U./L
Beagle dogs; 18.4 mg/kg
  Nervous system signs: vocalizations, struggling against restraint, excessive salivation, hyperextension of all limbs and/or labored breathing
Beagle dogs; 18.4 mg/kg (2XMELD10), listed as BIDA
  Mortality / lethality: Neither the single injection of 2×MELD10 or the daily×5 injection of the 3×MELD10 caused lethality
Beagle dogs; 18.4 mg/kg (2XMELD10), listed as benzisoquinolinedione
  Mortality / lethality: no deaths and 0/4
Beagle dogs; 18.4 mg/kg, all dogs, day 2
  BUN: 23 to 32 mg/dL
Beagle dogs; 18.4 mg/kg, days 3, 8 or 4
  leukopenia (leukocyte count): 3.8-5.4 ×10^3 /cmm
Beagle dogs; 18.4 mg/kg, listed as benzisoquinolinedione
  gross or microscopic lesions: No gross or microscopic lesions were seen; also recorded: No drug-related gross or microscopic lesions were found
Beagle dogs; [9]
  SGOT: 43-70 I.U./L
  SGPT: 40-57 I.U./L
Beagle dogs; 18.4 mg/kg, two long-term dogs, days 22 and 29 or 28
  BUN: 23 to 29 mg/dL
Beagle dogs; listed as BIDA
  toxicity summary, dogs: Hematopoletic, renal and hepatic toxicity; also recorded: Signs indicating pain and/or neurotoxicity
Beagle dogs; listed as benzisoquinolinedione
  toxicity summary, dogs: reversible toxicity to the hematopoietic system, kidney and liver; also recorded: Signs indicative of pain and/or neurotoxicity; also recorded: No drug-related gross or microscopic lesions
L-1210 Lymphoid leukemia [1]; 5.00 mg/kg i.p.
  Median survival time (MST): 8.2 days
  Percent T/C: 102%
L-1210 Lymphoid leukemia [1]; 7.00 mg/kg i.p.
  Median survival time (MST): 8.3 days
  Percent T/C: 103%
L-1210 Lymphoid leukemia [1]; 10.00 mg/kg i.p.
  Median survival time (MST): 9.0 days
  Percent T/C: 112%
L-1210 Lymphoid leukemia [1]; 16.00 mg/kg i.p.
  Median survival time (MST): 12.0 days
  Percent T/C: 150%
L-1210 Lymphoid leukemia [1]; 24.00 mg/kg i.p.
  Median survival time (MST): 9.3 days
  Percent T/C: 116%
LX-1 lung xenograft; listed as BIDA
  Antitumor activity in words: No activity was seen
LX-1 lung xenograft; listed as the compound
  Antitumor activity in words: not active
LX-1 lung xenograft; [8]
  Table II evaluation: Activity not
[2]; 8.00 mg/kg i.p.
  Median survival time (MST): 17.0 days
  Percent T/C: 144%
[2]; 16.00 mg/kg i.p.
  Median survival time (MST): 21.0 days
  Percent T/C: 177%
[2]; 32.00 mg/kg i.p.
  Median survival time (MST): 7.3 days
[2]; 65.00 mg/kg i.p.
  Median survival time (MST): 6.4 days
[3]; 2.00 mg/kg i.p.
  Median survival time (MST): 13.3 days
  Percent T/C: 135%
[3]; 4.00 mg/kg i.p.
  Median survival time (MST): 14.0 days
  Percent T/C: 142%
[3]; 8.00 mg/kg i.p.
  Median survival time (MST): 17.3 days
  Percent T/C: 176%
[3]; 16.00 mg/kg i.p.
  Median survival time (MST): 13.0 days
  Percent T/C: 132%
[3]; 32.00 mg/kg i.p.
  Median survival time (MST): 6.1 days
Colon 38 [4]; 2.00 mg/kg i.p.
  Median tumor weight (MTW): 2141
  Percent T/C: 111%
Colon 38 [4]; 4.00 mg/kg i.p.
  Median tumor weight (MTW): 1872
  Percent T/C: 97%
Colon 38 [4]; 8.00 mg/kg i.p.
  Median tumor weight (MTW): 1687
  Percent T/C: 87%
Colon 38 [4]; 16.00 mg/kg i.p.
  Median tumor weight (MTW): 2748
  Percent T/C: 142%
Colon 38 [4]; 32.00 mg/kg i.p.
  Median tumor weight (MTW): 1013
  Percent T/C: 52%
Colon 38 [4]; 64.00 mg/kg i.p.
  Median tumor weight (MTW): 1132
  Percent T/C: 58%
L-1210 Lymphoid leukemia [5]; 1.00 mg/kg i.p.
  Mean survival time (MST): 7.5 days
  Percent T/C: 92%
L-1210 Lymphoid leukemia [5]; 2.00 mg/kg i.p.
  Mean survival time (MST): 8.3 days
  Percent T/C: 102%
L-1210 Lymphoid leukemia [5]; 4.00 mg/kg i.p.
  Mean survival time (MST): 8.7 days
  Percent T/C: 107%
L-1210 Lymphoid leukemia [5]; 8.00 mg/kg i.p.
  Mean survival time (MST): 10.2 days
  Percent T/C: 125%
L-1210 Lymphoid leukemia [5]; 16.00 mg/kg i.p.
  Mean survival time (MST): 14.2 days
  Percent T/C: 175%
L-1210 Lymphoid leukemia [5]; 32.00 mg/kg i.p.
  Mean survival time (MST): 7.8 days
  Percent T/C: 96%
Colon 38 [6]; 64 mg/kg i.p.
  T/C, growth of s.c. implanted colon 38 tumor: 17%
Colon 38 [6]; Mus musculus, 64 mg/kg i.p., read-out: inhibition of growth of s.c. implanted colon 38 tumor
  inhibition at 64 mg/kg: 83%
Colon 38 [6]; listed as BIDA
  Antitumor activity in words: not active
Colon 38 [6]; listed as the compound
  Antitumor activity in words: at least a reproducible minimal activity; also recorded: active
Colon 38 [6]; median tumor weight, 25 tests, full wrapped cell: Reproducible minimal activity
  Table II evaluation: Reproducible minimal
Canine whole blood; 1:1 drug to blood
  hemolysis: hemolysis
Canine whole blood; 1:2
  hemolysis: Slight hemolysis
Canine whole blood; 1:4
  hemolysis: none
[7]; listed as BIDA
  Antitumor activity in words: No activity was seen
[7]; listed as the compound
  Antitumor activity in words: not active
[7]; [8]
  Table II evaluation: Activity not
